Values after ≈ are worked out from the molar mass of the structure shown. Read-outs that look alike come from different tables or passages of the source.
How the values were obtained:
[1] = SBA for NDA 18-533; cited from earlier work
Candida guilliermondii = test: Antifungal MIC; type: cell-based; conditions: Meyerozyma guilliermondii, DSM11947; DSM strain 11947, 48 h
[2] = 28 day GLP toxicity study in dogs
[3] = read-out: Cmax of unmetabolized ketoconazole; humans, 400 mg dose; cited from earlier work
testosterone levels = test: Testosterone levels in rats after oral dosing; type: in vivo, Sprague Dawley rats; conditions: for Testosterone levels (mean ± SEM): 4 h after gavage
Source text: There was a single control group (dosed with vehicle).
The means of the vehicle treated groups are used as the time zero control point.

rat hepatocytes = conditions: cultured rat hepatocytes, four hours exposure; cited from earlier work
[4] = cited from earlier work; for AUC 0-12 / Cmax / T ½: humans
[5] = system: mouse L5178Y lymphoma cells; test: Mouse lymphoma assay, thymidine kinase locus; conditions: with and without S-9, up to toxic doses
P450 4A = conditions: read-out: IC50, lauric acid hydroxylase (4A); Rotstein et al. 1992; cited from earlier work
P450 3A = conditions: read-out: IC50, progesterone 6β hydroxylase (3A); Rotstein et al. 1992; cited from earlier work
[6] = system: CYP7A (cholesterol 7α hydroxylase); test: Inhibition of CYP7A, cholesterol 7α-hydroxylase activity (Rotstein et al. 1992); conditions: assuming intrahepatic concentration approximately 20% of total plasma concentration
P450 2C6 = P450 2C6 (Rattus norvegicus, UniProt P05178); conditions: Rotstein et al. 1992; read-out: IC50, progesterone 21 hydroxylase (2C6); cited from earlier work
[7] = dog, in vivo, 40 mg/kg
Description: As a control, a separate set of 2 male and 2 female dogs was treated with vehicle.

[8] = dog, in vivo, po, 40 mg/kg/day
[9] = system: P450 2B1, 2B2, 1A1, 2C11, 3A; conditions: read-out: IC50, progesterone 16α hydroxylase (2B1, 2B2, 1A1, 2C11, 3A); Rotstein et al. 1992; cited from earlier work
Salmonella typhimurium = test: Ames assay; conditions: five histidine requiring strains
[10] = following fifth 200 mg dose of racemic ketoconazole (every twelve hours)
[11] = following first 200 mg dose of racemic ketoconazole
[12] = normal volunteers, 200 mg dose of the racemic mixture
[13] = dogs, 2, 6.5, 20 mg/kg/day, 28 days

Chain of P450 2C6 (P05178 whole entry): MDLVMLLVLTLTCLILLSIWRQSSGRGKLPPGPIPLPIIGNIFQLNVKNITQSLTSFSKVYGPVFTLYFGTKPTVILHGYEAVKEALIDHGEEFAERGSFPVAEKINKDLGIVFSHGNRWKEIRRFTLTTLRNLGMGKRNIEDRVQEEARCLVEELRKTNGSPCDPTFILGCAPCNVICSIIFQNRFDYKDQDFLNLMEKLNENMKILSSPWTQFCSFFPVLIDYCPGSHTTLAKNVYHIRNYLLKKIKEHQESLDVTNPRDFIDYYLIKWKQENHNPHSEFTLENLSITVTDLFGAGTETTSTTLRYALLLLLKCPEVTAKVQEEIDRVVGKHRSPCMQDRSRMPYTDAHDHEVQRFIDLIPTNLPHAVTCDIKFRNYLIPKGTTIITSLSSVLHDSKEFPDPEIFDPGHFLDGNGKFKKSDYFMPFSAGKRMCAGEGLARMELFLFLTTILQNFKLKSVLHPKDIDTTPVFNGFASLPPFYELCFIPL

CC(=O)N1CCN(c2ccc(OCC3COC(Cn4ccnc4)(c4ccc(Cl)cc4Cl)O3)cc2)CC1 (racemic) [Racemic ketoconazole, 1-acetyl-4-[4-[[2-(2,4-dichlorophenyl)-2-[(1H-imidazol-1-yl)-methyl]-1,3-dioxolan-4-yl]methoxy]phenyl]piperazine]
carcinogenicity [1]: non-carcinogenic | MIC (Candida guilliermondii): 0.125 µg/mL (≈ 0.235 µM) | body weight losses ([2]; dogs, 40 mg/kg/day, led to cessation of dosing after 9 days): up to 17.3% | Cmax [3]: 12.3 µM | Testosterone levels (mean ± SEM) (testosterone levels; single oral 50 mg/kg): 2.7 ± 0.6 nmol/L | Testosterone levels (mean ± SEM) (testosterone levels; single oral 100 mg/kg): 1.7 ± 0.5 nmol/L | Testosterone levels (mean ± SEM), time course (testosterone levels; single oral 200 mg/kg, 4 h): 1.6 ± 0.6 nmol/L | Testosterone levels (mean ± SEM) (testosterone levels; single oral 200 mg/kg): 0.4 ± 0.2 nmol/L | Testosterone levels (mean ± SEM), time course (testosterone levels; single oral 200 mg/kg, 8 h): 8.0 ± 1.0 nmol/L | Testosterone levels (mean ± SEM), time course (testosterone levels; single oral 200 mg/kg, 12 h): 4.6 ± 0.6 nmol/L | Testosterone levels (mean ± SEM), time course (testosterone levels; single oral 200 mg/kg, 16 h): 3.8 ± 0.5 nmol/L | Testosterone levels (mean ± SEM), time course (testosterone levels; single oral 200 mg/kg, 20 h): 5.6 ± 0.8 nmol/L | Testosterone levels (mean ± SEM), time course (testosterone levels; single oral 200 mg/kg, 24 h): 5.9 ± 0.5 nmol/L | Testosterone levels (mean ± SEM) (testosterone levels; single oral 400 mg/kg): 0.4 ± 0.2 nmol/L | Testosterone levels (mean ± SEM) (testosterone levels; single oral 600 mg/kg): 0.8 ± 0.1 nmol/L | concentrations with no detectable effect on LDH release (rat hepatocytes): below 75 microM

CC(=O)N1CCN(c2ccc(OC[C@@H]3CO[C@@](Cn4ccnc4)(c4ccc(Cl)cc4Cl)O3)cc2)CC1 [DIO-902, 2S,4R cis-1-acetyl-4-[4-[[2-(2,4-dichlorophenyl)-2-(1H-imidazol-1-ylmethyl)-1,3-dioxolan-4-yl]methoxyl]phenyl]piperazine]
AUC 0-12 [4, 10]: 538 ± 74 µg·min/mL | Cmax [4, 10]: 1530 ± 190 ng/mL | T ½ [4, 10]: 3.62 ± 0.5 h | AUC 0-12 [4, 11]: 302 ± 38 µg·min/mL | Cmax [4, 11]: 1060 ± 130 ng/mL | T ½ [4, 11]: 2.22 ± 0.233 h | maximum plasma concentration [4, 12]: approximately 3.6 μg/mL | time of maximum plasma concentration [4, 12]: 2 h | MIC (Candida guilliermondii): 0.06 µg/mL (≈ 0.113 µM) | QTc ([2]; dogs, 20 mg/kg/day, 28 days): no obvious QTc prolongation | food eaten less than placebo control group ([2]; dogs, 20 mg/kg/day, 28 days): 25-35% | body weight gain ([2]; dogs, 20 mg/kg/day, 28 days, females (placebo 0.9 kg)): 0.14 kg | body weight gain ([2]; dogs, 20 mg/kg/day, 28 days, males (placebo 1.1 kg)): 0.25 kg | change in serum chemistry measures [2, 13]: reduction in cholesterol | hematology [2, 13]: no hematological changes noted | ophthalmological and electrocardiographic parameters [2, 13]: no measurable effects | microscopic findings ([2]; dogs, any dose, 28 days): no remarkable microscopic findings | genotoxicity, mouse lymphoma assay [5]: negative | IC50 (P450 4A): > 100 µM | IC50 (P450 3A): 1.3 µM | total plasma concentration required to inhibit intrahepatic CYP7A [6]: 12 microM and approximately 6.3 microg/mL | IC50 (P450 2C6): 9 µM | time for testosterone levels to return to normal (testosterone levels; 200 mg/kg): ≤ 8 h | Testosterone levels (mean ± SEM) (testosterone levels; single oral 50 mg/kg): 2.6 ± 0.7 nmol/L | Testosterone levels (mean ± SEM) (testosterone levels; single oral 100 mg/kg): 0.8 ± 0.3 nmol/L | Testosterone levels (mean ± SEM), time course (testosterone levels; single oral 200 mg/kg, 4 h): 0.8 ± 0.2 nmol/L | Testosterone levels (mean ± SEM) (testosterone levels; single oral 200 mg/kg): 0.2 ± 0.1 nmol/L | Testosterone levels (mean ± SEM), time course (testosterone levels; single oral 200 mg/kg, 8 h): 5.9 ± 0.8 nmol/L | Testosterone levels (mean ± SEM), time course (testosterone levels; single oral 200 mg/kg, 12 h): 3.4 ± 0.5 nmol/L | Testosterone levels (mean ± SEM), time course (testosterone levels; single oral 200 mg/kg, 16 h): 3.9 ± 0.6 nmol/L | Testosterone levels (mean ± SEM), time course (testosterone levels; single oral 200 mg/kg, 20 h): 5.2 ± 0.6 nmol/L | Testosterone levels (mean ± SEM), time course (testosterone levels; single oral 200 mg/kg, 24 h): 4.4 ± 0.7 nmol/L | Testosterone levels (mean ± SEM) (testosterone levels; single oral 400 mg/kg): 0.3 ± 0.1 nmol/L | Testosterone levels (mean ± SEM) (testosterone levels; single oral 600 mg/kg): 0 ± 0 nmol/L | clinical signs [7]: vomiting | reduction in total white cell numbers [8]: 20% | IC50 [9]: 84 µM | genotoxicity, Ames assay (Salmonella typhimurium): negative
